Assay [1] relates to A549 cells. Briefly: flow cytometer cell cycle analysis. It is filed as cell-based, human. The following applies: in comparison with non-treated samples, p<0.01.
The subject of assay [2] is A549 cells. Briefly: cytoskeleton and nuclei staining, confocal microscope. It counts as cell-based, human. The conditions noted are these: 24 hours, taxol 50 nM.

Each structure is given as a SMILES string.

As to `CC(=O)O[C@H]1C(=O)[C@@]2(C)[C@H]([C@H](OC(=O)c3ccccc3)[C@]3(O)C[C@H](OC(=O)[C@H](O)[C@@H](NC(=O)c4ccccc4)c4ccccc4)C(C)=C1C3(C)C)[C@]1(OC(C)=O)CO[C@@H]1C[C@@H]2O` [taxol], the G1/G0 cell population result in the assay with A549 cells [1] is given as “significantly reduced”. In addition, in the assay with A549 cells [2] (carrier 100 μg/mL), the “mitosis of the cells” value is “significantly enhancing mitosis”. For the same molecule, the “effect on microtubules, spindle and chromosomes” value in the assay on A549 cells [2] (carrier or ND 100 μg/mL) is “induced polymerization of microtubules, inhibited formation of spindle, and inhibited separation of chromosomes”.
